# According to US9140688B2, “Sperm staining and sorting methods” (INGURAN, LLC, priority 2011, dated 2015):
# System: elk sperm
# Experiment: Post thaw DNA fragmentation of elk sperm (Example 3)
# Assay type: cell-based
# Description: Each of deer and elk were collected in the Tris-egg yolk catch fluid described as a catch media in Example 1, and shipped for sorting.
# A portion of each of the deer and the elk were stained by the red food dye No. 40 treatment 40% with 16 μL Hoechst 33342 and the yellow food dye No. 6 treatment with 14 μL Hoechst 33342 as described in Example 1.
# Samples were each bulk sorted with the same machine and parameters described in Example 1. Both sorted X and sorted Y sperm were collected into a single catch. The sorted samples were then frozen like those described in Example 1.
# Frozen thawed samples were then tested for post thaw motilities and post thaw DNA fragmentation. Post thaw motilities were slightly higher in Elk sorted with a yellow quencher, while a more significant difference existed in progressive motility. In Table 10, post thaw DNA fragmentation in Elk can be seen at about double after 48 hours when red food dye No. 40 is compared to yellow food dye No. 6 as a dead quencher.
"Post Thaw DNA fragmentation Elk, Post Sort (elk, 0 h) [%]","Post Thaw DNA fragmentation Elk, Pre-sort (elk, 0 h) [%]","Post Thaw DNA fragmentation Elk, Post Sort (elk, 24 h) [%]","Post Thaw DNA fragmentation Elk, Pre-sort (elk, 24 h) [%]","Post Thaw DNA fragmentation Elk, Post Sort (elk, 48 h) [%]","Post Thaw DNA fragmentation Elk, Pre-sort (elk, 48 h) [%]","Post Thaw DNA fragmentation Elk, Post Sort (0 HR, unit assumed) [%]","Post Thaw DNA fragmentation Elk, Pre-sort (0 HR, unit assumed) [%]","Post Thaw DNA fragmentation Elk, Post Sort (24 HR, unit assumed) [%]","Post Thaw DNA fragmentation Elk, Pre-sort (24 HR, unit assumed) [%]","Post Thaw DNA fragmentation Elk, Post Sort (48 HR, unit assumed) [%]","Post Thaw DNA fragmentation Elk, Pre-sort (48 HR, unit assumed) [%]",SMILES
0,2.3,0.3,5.6,0.7,6,,,,,,,"COc1cc(S(=O)(=O)O)c(C)cc1N=Nc1c(O)ccc2cc(S(=O)(=O)O)ccc12 [Red 40, 6-hydroxy-5-[(2-methoxy-5-methyl-4-sulfophenyl)azo]-2-naphthalenesulfonic acid, reference compound]"
,,,,,,0,2.3,0,3.3,0.3,3.7,"O=S(=O)([O-])c1ccc(N=Nc2c(O)ccc3cc(S(=O)(=O)[O-])ccc23)cc1.[Na+].[Na+] [Yellow 6, Disodium 6-hydroxy-5-[(4-sulfophenyl)azo]-2-naphthalenesulfononate]"
